# From PMC6691843, “Seeking new approach for therapeutic treatment of cholera disease via inhibition of bacterial carbonic anhydrases: experimental and theoretical studies for sixteen benzenesulfonamide derivatives” (Journal of Enzyme Inhibition and Medicinal Chemistry, 2019)
# Read-outs that look alike come from different tables or passages of the source.
# Legend:
# VchCAα = target: T1, VchCAα (Vibrio cholerae serotype O1, UniProt Q9KMP6); assay: stopped flow CO2 hydrase assay, VchCAα; format: biochemical; settings: for Ki: stopped flow CO2 hydrase assay, mean from three different assays
# T1 construct: made in house; host or cells: E. coli BL21 DE3
# T1 sequence (Q9KMP6 21-239): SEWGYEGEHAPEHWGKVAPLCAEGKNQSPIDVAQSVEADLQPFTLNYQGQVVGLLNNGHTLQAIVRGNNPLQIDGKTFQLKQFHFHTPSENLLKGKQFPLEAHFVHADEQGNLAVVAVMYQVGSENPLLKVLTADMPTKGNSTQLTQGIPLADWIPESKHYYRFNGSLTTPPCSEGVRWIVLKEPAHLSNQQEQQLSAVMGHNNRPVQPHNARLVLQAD
# VchCAβ = VchCAβ (Vibrio cholerae, UniProt A0A086SLX8); assay: stopped flow CO2 hydrase assay, VchCAβ; format: biochemical; settings: for inhibitory activity toward VchCAβ (in words): qualitative statement
# Sequence of VchCAβ (A0A086SLX8 entry or part of it): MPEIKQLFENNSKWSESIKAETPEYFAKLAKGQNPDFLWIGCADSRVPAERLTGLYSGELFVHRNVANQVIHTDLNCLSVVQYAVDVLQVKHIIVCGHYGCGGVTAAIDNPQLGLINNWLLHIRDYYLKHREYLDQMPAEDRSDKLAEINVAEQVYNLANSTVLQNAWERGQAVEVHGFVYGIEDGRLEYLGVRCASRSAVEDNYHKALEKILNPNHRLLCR
# VchCAγ = VchCAγ (Vibrio cholerae, UniProt Q9KVT1); assay: stopped flow CO2 hydrase assay, VchCAγ; format: biochemical
# Sequence of VchCAγ (Q9KVT1 entry or part of it): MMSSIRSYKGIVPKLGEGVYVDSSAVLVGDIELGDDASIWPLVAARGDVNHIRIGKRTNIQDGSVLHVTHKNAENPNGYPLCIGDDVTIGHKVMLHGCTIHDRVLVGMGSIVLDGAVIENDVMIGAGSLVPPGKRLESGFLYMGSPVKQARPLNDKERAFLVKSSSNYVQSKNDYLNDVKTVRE
# pathogen = tested on: pathogen; set-up: method as in PMID 26010545; settings: cited from earlier work
SMILES,Ki (VchCAα; Ki VchCAα),Ki (VchCAβ),Ki (VchCAγ),melting point,Ki (VchCAα; read-out: Ki VchCAα),reduction of activity on VchCAα compared to parent compound 8d (VchCAα; 8a versus 8d),inhibitory activity toward VchCAβ (in words) (VchCAβ),growth of pathogen (pathogen),virulence gene expression (pathogen)
"NS(=O)(=O)c1ccc(C(=O)N2CCCCC2)cc1 [5a, 4-(Piperidine-1-carbonyl)benzenesulfonamide]",0.843 µM,> 10 µM,> 10 µM,,,,,,
"CC1CCCCN1C(=O)c1ccc(S(N)(=O)=O)cc1 (stereo not shown) [5b, 4-(2-Methylpiperidine-1-carbonyl)benzenesulfonamide]",0.296 µM,> 10 µM,> 10 µM,,,,,,
"CC1CCCN(C(=O)c2ccc(S(N)(=O)=O)cc2)C1 (stereo not shown) [5c, 4-(3-Methylpiperidine-1-carbonyl)benzenesulfonamide]",0.529 µM,> 10 µM,> 10 µM,,,,,,
"CC1CCN(C(=O)c2ccc(S(N)(=O)=O)cc2)CC1 [5d, 4-(4-Methylpiperidine-1-carbonyl)benzenesulfonamide]",0.589 µM,> 10 µM,> 10 µM,212 to 213 °C,,,,,
"NS(=O)(=O)c1ccc(C(=O)N2CCC(Cc3ccccc3)CC2)cc1 [5e, 4-(4-Benzylpiperidine-1-carbonyl)benzenesulfonamide]",0.242 µM,3.75 µM,> 10 µM,156 to 157 °C,,,,,
"NS(=O)(=O)c1ccc(C(=O)N2CCCCCC2)cc1 [6a, 4-(Azepane-1-carbonyl)benzenesulfonamide]",0.275 µM,> 10 µM,> 10 µM,,,,,,
"NS(=O)(=O)c1ccc(C(=O)N2CCC(c3ccccc3)CC2)cc1 [7a, 4-(4-Phenylpiperidine-1-carbonyl)benzenesulfonamide]",0.0433 µM,3.31 µM,> 10 µM,222 to 223 °C,,,,,
"NS(=O)(=O)c1ccc(C(=O)N2CCC(O)(c3ccccc3)CC2)cc1 [7b, 4-(4-Hydroxy-4-phenylpiperidine-1-carbonyl)benzenesulfonamide]",0.194 µM,3.71 µM,> 10 µM,135 to 137 °C,,,,,
"NS(=O)(=O)c1ccc(C(=O)N2CCC(O)(c3ccc(Cl)cc3)CC2)cc1 [7c, 4-[4-(4-Chlorophenyl)-4-hydroxypiperidine-1-carbonyl]benzenesulfonamide]",0.0451 µM,3.94 µM,> 10 µM,215 to 217 °C,,,,,
"NS(=O)(=O)c1ccc(C(=O)N2CCC(O)(c3ccc(Br)cc3)CC2)cc1 [7d, 4-[4-(4-Bromophenyl)-4-hydroxy-piperidine-1-carbonyl]benzenesulfonamide]",0.0588 µM,2.78 µM,> 10 µM,219 to 220 °C,,,,,
"N#CC1(c2ccccc2)CCN(C(=O)c2ccc(S(N)(=O)=O)cc2)CC1 [7e, 4-(4-Cyano-4-phenylpiperidine-1-carbonyl)benzenesulfonamide]",0.0899 µM,0.806 µM,> 10 µM,285 to 286 °C,,,,,
"CC(=O)C1(c2ccccc2)CCN(C(=O)c2ccc(S(N)(=O)=O)cc2)CC1 [7f, 4-(4-Acetyl-4-phenyl-piperidine-1-carbonyl)benzenesulfonamide]",,6.61 µM,> 10 µM,,0.0721 µM,,,,
"NS(=O)(=O)c1ccc(C(=O)N2CCN(Cc3ccccc3)CC2)cc1 [8a, 4-(4-Benzylpiperazine-1-carbonyl)benzenesulfonamide]",0.47 µM,> 10 µM,> 10 µM,204 to 205 °C,,ten-fold reduction of activity,completely loss of inhibitory activity,,
"NS(=O)(=O)c1ccc(C(=O)N2CCN(Cc3ccc(F)cc3)CC2)cc1 [8b, 4-[4-[(4-Fluorophenyl)methyl]piperazine-1-carbonyl]benzenesulfonamide]",0.0957 µM,5.01 µM,> 10 µM,206 to 207 °C,,,moderate inhibitors,,
"NS(=O)(=O)c1ccc(C(=O)N2CCN(C(c3ccccc3)c3ccccc3)CC2)cc1 [8c, 4-(4-Benzhydrylpiperazine-1-carbonyl)benzenesulfonamide]",0.275 µM,4.82 µM,> 10 µM,,,,moderate inhibitors,,
"NS(=O)(=O)c1ccc(C(=O)N2CCN(c3ccccc3)CC2)cc1 [8d, 4-(4-Phenylpiperazine-1-carbonyl)benzenesulfonamide]",0.047 µM,4.16 µM,> 10 µM,,,,moderate inhibitors,,
"CCOc1ccc2nc(S(N)(=O)=O)sc2c1 [EZA, ethoxzolamide]",,,,,,,,reduce the growth of pathogen,decrease the virulence gene expression
